What all share (assay): relative viability (nuclei count vs DMSO), 5 days (fraction); higher = more cells survive
Compound in the test “Vemurafenib + OSI-027”: CCCS(=O)(=O)Nc1ccc(F)c(C(=O)c2c[nH]c3ncc(-c4ccc(Cl)cc4)cc23)c1F [Vemurafenib] + COc1cccc2cc(-c3nc([C@H]4CC[C@H](C(=O)O)CC4)n4ncnc(N)c34)[nH]c12 [OSI-027] (partner 0.5 µM)
The method in brief: (§1)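 Lung cancer cell lines, seeded in 1536-well plates, were treated the following day by pin tool with a single drug or with five library-drug doses (not always all listed) in √10 steps on top of a fixed anchor-drug dose. Cells were fixed and nuclei stained in one step after 5 days, and nuclei were counted. Relative viability is the nuclei count for treated wells divided by that for vehicle wells, reported as medians of duplicate plates.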

Compound in the test “Vemurafenib + Foretinib”: CCCS(=O)(=O)Nc1ccc(F)c(C(=O)c2c[nH]c3ncc(-c4ccc(Cl)cc4)cc23)c1F [Vemurafenib] + COc1cc2c(Oc3ccc(NC(=O)C4(C(=O)Nc5ccc(F)cc5)CC4)cc3F)ccnc2cc1OCCCN1CCOCC1 [Foretinib] (partner 0.25 µM)
The method in brief:
as §1

Compound in the test “OSI-027 + Dasatinib”: COc1cccc2cc(-c3nc([C@H]4CC[C@H](C(=O)O)CC4)n4ncnc(N)c34)[nH]c12 [OSI-027] + Cc1nc(Nc2ncc(C(=O)Nc3c(C)cccc3Cl)s2)cc(N2CCN(CCO)CC2)n1 [Dasatinib] (partner 0.075 µM)
The method in brief:
as §1

Compound in the test “Vemurafenib + Pemetrexed”: CCCS(=O)(=O)Nc1ccc(F)c(C(=O)c2c[nH]c3ncc(-c4ccc(Cl)cc4)cc23)c1F [Vemurafenib] + Nc1nc2[nH]cc(CCc3ccc(C(=O)N[C@@H](CCC(=O)O)C(=O)O)cc3)c2c(=O)[nH]1 [Pemetrexed] (partner 0.2 µM)
The method in brief: as §1

The text below walks through data of the supplement of paper PMC10307832.

As for UMC-11, the relative viability with Vemurafenib + OSI-027 (first compound 0.03162 µM) turned out to be 0.541; with Vemurafenib + OSI-027 (first compound 0.1 µM) it was 0.519; in the test with Vemurafenib + OSI-027 (first compound 0.3162 µM) it was 0.411; in the test with Vemurafenib + OSI-027 (first compound 1 µM), 0.44; with Vemurafenib + Foretinib (first compound 0.03162 µM) it was 1.02; in the test with Vemurafenib + Foretinib (first compound 0.1 µM), 1. Besides, the relative viability came out at 1.15 with Vemurafenib + Foretinib (first compound 0.3162 µM); 0.923 with Vemurafenib + Foretinib (first compound 1 µM); 0.537 with OSI-027 + Dasatinib (first compound 0.01 µM); 0.457 with OSI-027 + Dasatinib (first compound 0.03162 µM); 0.404 with OSI-027 + Dasatinib (first compound 0.1 µM); 0.434 with OSI-027 + Dasatinib (first compound 0.3162 µM). In addition, the relative viability was 0.299 with OSI-027 + Dasatinib (first compound 1 µM); 0.876 in the test with Vemurafenib + Pemetrexed (first compound 0.03162 µM); 0.662 with Vemurafenib + Pemetrexed (first compound 0.1 µM); 0.717 with Vemurafenib + Pemetrexed (first compound 0.3162 µM); 0.707 with Vemurafenib + Pemetrexed (first compound 1 µM).
